Experiments:
Type in all cases: in vivo
Alopecurus myosuroides [1] = experiment: Pre-emergence herbicidal effect; settings: visual score after 3 weeks
Source text: (§1) Seeds of monocotyledonous and dicotyledonous weed plants and crop plants are laid out in wood-fibre pots in sandy loam and covered with soil. The compounds according to the invention formulated in the form of wettable powders (WP) or as emulsion concentrates (EC) are then applied as aqueous suspension or emulsion at a water application rate of 600 to 800 l/ha (converted) with the addition of 0.2% wetting agent to the surface of the covering soil. After the treatment, the pots are placed in a greenhouse and kept under good growth conditions for the trial plants. The damage to the test plants is scored visually after a test period of 3 weeks by comparison with untreated controls (herbicidal activity in percent (%): 100% activity=the plants have died, 0% activity=like control plants).

Viola tricolor = experiment: Pre-emergence herbicidal effect; settings: 320 g/ha, visual score after 3 weeks
Source text: as §1

Veronica persica = experiment: Pre-emergence herbicidal effect; settings: 320 g/ha, visual score after 3 weeks
Source text: as §1

Lolium multiflorum [2] = experiment: Pre-emergence herbicidal effect; settings: visual score after 3 weeks
Source text: as §1

Setaria viridis [3] = experiment: Pre-emergence herbicidal effect; settings: for Pre-emergence effectiveness SETVI: visual score after 3 weeks
Source text: as §1

Echinochloa crus-galli [4] = experiment: Pre-emergence herbicidal effect; settings: visual score after 3 weeks
Source text: as §1

Alopecurus myosuroides [5] = experiment: Post-emergence herbicidal effect; settings: for Post-emergence effectiveness ALOMY: visual assessment after about 3 weeks; for Comparison data for post-emergence effect ALOMY: 20 g a.i./ha
Method: (§2) Seeds of monocotyledonous and dicotyledonous weed and crop plants are laid out in sandy loam in wood-fibre pots, covered with soil and cultivated in a greenhouse under good growth conditions. 2 to 3 weeks after sowing, the test plants are treated at the one-leaf stage. The compounds according to the invention, formulated in the form of wettable powders (WP) or as emulsion concentrates (EC), are then sprayed as aqueous suspension or emulsion at a water application rate of 600 to 800 l/ha (converted) with the addition of 0.2% of wetting agent onto the green parts of the plants. After the test plants have been left to stand in the greenhouse under optimal growth conditions for about 3 weeks, the action of the preparations is assessed visually in comparison to untreated controls (herbicidal action in percent (%): 100% activity=the plants have died, 0% activity=like control plants).

Avena fatua [6] = experiment: Post-emergence herbicidal effect; settings: for Post-emergence effectiveness AVEFA: visual assessment after about 3 weeks; for Comparison data for post-emergence effect AVEFA: 20 g a.i./ha
Method: as §2

Lolium multiflorum [7] = experiment: Post-emergence herbicidal effect; settings: visual assessment after about 3 weeks
Method: as §2

Setaria viridis [8] = experiment: Post-emergence herbicidal effect; settings: visual assessment after about 3 weeks
Method: as §2

Echinochloa crus-galli [9] = experiment: Post-emergence herbicidal effect; settings: visual assessment after about 3 weeks
Method: as §2

Avena fatua [10] = experiment: Pre-emergence herbicidal effect; settings: for Pre-emergence effectiveness AVEFA: visual score after 3 weeks
Source text: as §1

Cyperus esculentus = experiment: Pre-emergence herbicidal effect; settings: for Pre-emergence effectiveness CYPES: 320 g/ha, visual score after 3 weeks
Source text: as §1

PHBPU = experiment: Post-emergence herbicidal effect; settings: 20 g a.i./ha
Method: as §2

| SMILES | Pre-emergence effectiveness ALOMY (Alopecurus myosuroides [1]; 320 g/ha) | Pre-emergence effectiveness VERPE (Veronica persica) | Pre-emergence effectiveness LOLMU (Lolium multiflorum [2]; 320 g/ha) | Pre-emergence effectiveness SETVI (Setaria viridis [3]; 80 g/ha) | Pre-emergence effectiveness SETVI (Setaria viridis [3]; 320 g/ha) | Pre-emergence effectiveness ECHCG (Echinochloa crus-galli [4]; 80 g/ha) | Pre-emergence effectiveness ECHCG (Echinochloa crus-galli [4]; 320 g/ha) | Post-emergence effectiveness ALOMY (Alopecurus myosuroides [5]; 20 g/ha) | Post-emergence effectiveness ALOMY (Alopecurus myosuroides [5]; 80 g/ha) | Post-emergence effectiveness AVEFA (Avena fatua [6]; 20 g/ha) | Post-emergence effectiveness AVEFA (Avena fatua [6]; 80 g/ha) | Post-emergence effectiveness LOLMU (Lolium multiflorum [7]; 20 g/ha) | Post-emergence effectiveness LOLMU (Lolium multiflorum [7]; 80 g/ha) | Post-emergence effectiveness SETVI (Setaria viridis [8]; 20 g/ha) | Post-emergence effectiveness SETVI (Setaria viridis [8]; 80 g/ha) | Post-emergence effectiveness ECHCG (Echinochloa crus-galli [9]; 20 g/ha) | Post-emergence effectiveness ECHCG (Echinochloa crus-galli [9]; 80 g/ha) | Pre-emergence effectiveness ALOMY (Alopecurus myosuroides [1]; 80 g/ha) | Pre-emergence effectiveness AVEFA (Avena fatua [10]; 320 g/ha) | Pre-emergence effectiveness LOLMU (Lolium multiflorum [2]; 80 g/ha) | also measured |
| --- | --- | --- | --- | --- | --- | --- | --- | --- | --- | --- | --- | --- | --- | --- | --- | --- | --- | --- | --- | --- | --- |
| CC#Cc1cc(C)c(C2=C(OC(=O)C(C)C)C3(CCC(CCOC)CC3)NC2=O)c(CC)c1 (stereo not shown) [Ia-4] | 80% | 90% | 90% | 100% | 100% | 100% | 100% |  |  |  |  |  |  |  |  |  |  |  |  |  | Pre-emergence effectiveness VIOTR (Viola tricolor): 100% |
| CCc1cc(C#CC2CC2)cc(C)c1C1=C(O)C2(CCC(COC)C2)NC1=O (stereo not shown) [Example I-11] | 100% | 80% | 100% | 90% | 100% | 100% | 100% | 80% | 100% | 80% | 100% | 90% | 100% | 100% | 100% | 100% | 100% | 100% | 80% | 100% | Pre-emergence effectiveness CYPES (Cyperus esculentus): 100% |
| CC#Cc1cc(C)c(C2=C(OC(=O)OCC)C3(CCC(OC)CC3)NC2=O)c(CC)c1 (stereo not shown) [WO 2015/040114, reference compound] |  |  |  |  |  |  |  |  |  |  |  |  |  |  |  |  |  |  |  |  | Comparison data for post-emergence effect ALOMY (Alopecurus myosuroides [5]): 80%; Comparison data for post-emergence effect AVEFA (Avena fatua [6]): 70%; Comparison data for post-emergence effect PHBPU (PHBPU): 0%; Comparison data for pre-emergence effectiveness AVEFA (Avena fatua [10]; 20 g a.i./ha): 50%; Comparison data for pre-emergence effectiveness SETVI (Setaria viridis [3]; 20 g a.i./ha): 80%; Comparison data for pre-emergence effectiveness CYPES (Cyperus esculentus; 20 g a.i./ha): 0% |
| CC#Cc1cc(C)c(C2=C(O)C3(CCC(COC)CC3)NC2=O)c(CC)c1 (stereo not shown) [Example I-5] | 100% | 80% | 100% | 100% | 100% | 100% | 100% | 90% | 100% | 90% | 100% | 90% | 100% | 90% | 100% | 100% | 100% | 100% | 100% | 100% | Comparison data for post-emergence effect ALOMY (Alopecurus myosuroides [5]): 90%; Comparison data for post-emergence effect AVEFA (Avena fatua [6]): 90%; Comparison data for post-emergence effect PHBPU (PHBPU): 30%; Pre-emergence effectiveness AVEFA (Avena fatua [10]; 80 g/ha): 100%; Pre-emergence effectiveness CYPES (Cyperus esculentus): 100% |
| COCC1CCC2(CC1)NC(=O)C(c1c(C)cc(C#CC3CC3)cc1C)=C2O (stereo not shown) [Example I-8] | 100% | 90% | 100% | 80% | 90% | 100% | 100% | 90% | 100% |  | 80% | 90% | 90% | 100% | 100% | 100% | 100% | 90% |  | 90% |  |
| CCOC(=O)OC1=C(c2c(C)cc(C#CC3CC3)cc2CC)C(=O)N[C@]12CC[C@H](COC)C2 [Example Ia-1] | 100% | 90% | 100% | 100% | 100% | 100% | 100% |  | 80% |  |  |  |  |  | 90% | 90% | 100% | 90% | 90% | 100% | Pre-emergence effectiveness AVEFA (Avena fatua [10]; 80 g/ha): 80% |
| CC#Cc1cc(C)c(C2=C(O)C3(CCC(CCOC)CC3)NC2=O)c(CC)c1 (stereo not shown) [Example I-2] | 100% | 100% | 100% | 100% | 100% | 100% | 100% | 90% | 100% | 90% | 100% | 90% | 100% | 100% | 100% | 100% | 100% | 100% | 100% | 100% | Pre-emergence effectiveness AVEFA (Avena fatua [10]; 80 g/ha): 80%; Pre-emergence effectiveness CYPES (Cyperus esculentus): 100% |
